Source: PMC3833957, “Macroscopic Kinetics of Pentameric Ligand Gated Ion Channels: Comparisons between Two Prokaryotic Channels and One Eukaryotic Channel” (PLoS ONE, 2013)

Biological target: T1, ELIC (Dickeya chrysanthemi, UniProt P0C7B7)
T1 sequence (P0C7B7 1-321): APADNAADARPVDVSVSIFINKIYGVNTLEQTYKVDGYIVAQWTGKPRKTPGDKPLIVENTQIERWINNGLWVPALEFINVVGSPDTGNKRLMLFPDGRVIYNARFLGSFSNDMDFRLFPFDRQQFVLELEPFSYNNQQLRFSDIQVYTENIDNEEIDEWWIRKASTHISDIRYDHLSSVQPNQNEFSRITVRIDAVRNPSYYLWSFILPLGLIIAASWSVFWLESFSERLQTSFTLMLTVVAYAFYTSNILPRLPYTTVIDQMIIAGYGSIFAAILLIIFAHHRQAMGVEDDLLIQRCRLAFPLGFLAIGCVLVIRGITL
Experiment: two-electrode voltage clamp in Xenopus oocytes; outside-out patch clamp of HEK-293T cells
Format: cell-based

NCCS [CA, cysteamine]
EC50: 10 ± 0.1 mM
